Results taken from patent US20220257557A1, “PHARMACEUTICAL COMPOSITION FOR PREVENTING OR TREATING NEUROLOGICAL DISEASES” (GLACEUM INC., priority 2019, published 2022).

Tests used:
[1] = system: PON2 mRNA; experiment: Relative expression level of PON2 mRNA in liver of DIO mice (real-time PCR); type: in vivo, C57BL/6J DIO mice; settings: 100 mg/kg orally once daily for 6 weeks, 60% fat diet, FIG. 1a
Protocol: (§1) 14-Week-old C57BL/6J DIO (Diet Induced Obesity) mice (The Jackson Laboratory, USA) were purchased. The normal control group was fed a 10% fat diet for 3 weeks, and the DIO control group was fed a 60% fat diet for 3 weeks. In addition, the Formula III-1 compound-administered group was fed a 60% fat diet for 3 weeks, and then 100 mg/kg of the compound of Formula III-1 was orally administered thereto once daily for 6 weeks.
(§2) The mice of the normal control group, the DIO control group and the Formula III-1 compound-administered group were euthanized, and the liver tissues were extracted therefrom, washed with a PBS solution containing PIC (protease inhibitor cocktail), sectioned to a size of 0.2 to 0.5 g, and stored at −196° C. until the experiment.
The following experiment was conducted using the liver tissue sections from the normal control group, the DIO control group and the Formula III-1 compound-administered group.
The relative expression level of PON2 mRNA was analyzed using real-time PCR. Specifically, trizol (Invitrogen, Carlsbad, Calif., USA) was added to the liver tissue which was then minced using a homogenizer, and total RNA was extracted therefrom. […]

[2] = system: PON2 (Paraoxonase 2); experiment: Relative expression level of PON2 in liver of DIO mice (Western blot, relative to actin); type: in vivo, C57BL/6J DIO mice; settings: 100 mg/kg orally once daily for 6 weeks, 60% fat diet
Protocol: as §1
as §2, with “experiment. […]” for “experiment.”
A lysis buffer (CelLytic™ Cell Lysis Reagent, Sigma-Aldrich Corp.) containing a protease inhibitor cocktail was added to the liver tissue which was then minced using a homogenizer, incubated at 0° C. for 30 minutes, and centrifuged at 14,000 rpm for 15 minutes at 4° C. to obtain the supernatant. The protein concentration was quantified using the Bradford method, and then the same amount of protein was separated by electrophoresis on 10% SDS-PAGE and transferred to a polyvinylidene difluoride membrane (PVDF; Pall Corporation, USA) in glycine-methanol buffer. […]

[3] = system: SH-SY5Y cells; experiment: Cell death from MPP+ mitochondrial damage, MTT cell viability; type: cell-based, Human; settings: 1 mM MPP+ 24 h, then 0.0001-1 μM compound 24 h, FIG. 2
Protocol: Human neuronal SH-SY5Y cells were cultured in a 1:1 DMEM/F12 medium containing 10% FBS (fetal bovine serum) at 37° C. under 5% carbon dioxide and 95% air. The cultured cells were transferred to a 96-well cell culture plate at a density of 2*10^4 cells/well and cultured for 24 hours. Thereafter, after replacement with serum-restricted medium (1:1 DMEM/F12 medium containing 0.5% FBS), the cells were cultured for 16 hours. Then, the cultured cells were treated with 1 mM MPP+ (1-methyl-4-phenylpyridinium) and cultured for 24 hours, thus inducing mitochondrial dysfunction in the cells. […]
Each of the cultures obtained in Experimental Example 3-1 was treated with 0.2 mg/ml of 3-(4,5-dimethylthiazol-2-yl)-2,5-diphenyl-tetrazolium bromide (MTT; Sigma-Aldrich) and cultured for 4 hours. The MTT formazan precipitate formed by the viable cells was dissolved in 100 μl of 0.04N hydrochloric acid/isopropanol, and the absorbance at 540 nm was measured using an ELISA microplate reader (Molecular Devices).
The absorbances of controls were measured in the same manner as the above-described method, except for using a sample to which DMSO was added (normal control) instead of MMP+ and the compound of Formula III-1 and a sample to which the compound of Formula III-1 was not added (negative control).
The cell viability percentage was calculated from the absorbance.

[4] = system: BV2 cells; experiment: NO and PGE2 production after LPS; type: cell-based; settings: 3 h pretreatment (Table 3 amounts), LPS 1 μg/ml 24 h
How it was run: (§3)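 RAW264.7 or BV2 cells (5×10^5 cells/well) in DMEM with 10% FBS were pretreated with compound, then stimulated with 1 μg/ml LPS for 24 h. iNOS and COX-2 expression by Western blot; NO and PGE2 production measured. Compound toxicity checked by MTT.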

[5] = system: RAW264.7 cells; experiment: NO and PGE2 production after LPS; type: cell-based; settings: 3 h pretreatment (Table 3 amounts), LPS 1 μg/ml 24 h
How it was run: as §3

[6] = system: BV2 cells; experiment: IL-1β, IL-6 and TNF-α mRNA expression after LPS (RT-PCR); type: cell-based; settings: 3 h pretreatment (Table 3 amounts), LPS 1 μg/ml 6 h
How it was run: (§4)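 Cells pretreated with test compounds (cytotoxicity checked by MTT), then stimulated with 1 μg/ml LPS for 6 h. IL-1β, IL-6 and TNF-α mRNA levels measured by RT-PCR.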

[7] = system: RAW264.7 cells; experiment: as above; type: cell-based; settings: 3 h pretreatment (Table 3 amounts), LPS 1 μg/ml 6 h
How it was run: as §4

In the case of `CCOc1ccc(C2COc3c(ccc4c3CCC(C)(C)O4)C2)c(O)c1` (centres unmarked) [Formula III-1, 2-(8,8-dimethyl-2,3,4,8,9,10-hexahydropyrano[2,3-f]chromen-3-yl)-5-ethoxyphenol], the “expression level of PON2 mRNA compared with normal control group” value [1] is reported as “higher”, the “expression level of PON2 compared with DIO control group” value ([2]; FIG. 1) is reported as “higher” and the “expression level of PON2 compared with normal control group” value ([2]; FIG. 1b) is reported as “higher”. For the same compound, the “function of mitochondria damaged by MPP+ (cell viability percentage)” value [3] was “restored”, the “production of NO” value [4] was “concentration-dependently decreased” and the “production of PGE2” value [4] was “concentration-dependently decreased”. The “production of NO” value [5] was “concentration-dependently decreased”, the “production of PGE2” value [5] was “concentration-dependently decreased” and the “mRNA expression level of IL-1β” value [6] was “concentration-dependently decreased”. For the same compound, the “mRNA expression level of IL-6” value [6] was “concentration-dependently decreased”, the “mRNA expression level of TNF-α” value [6] was “concentration-dependently decreased” and the “mRNA expression level of IL-1β” value [7] was “concentration-dependently decreased”. For the same compound, the “mRNA expression level of IL-6” value [7] was “concentration-dependently decreased” and the “mRNA expression level of TNF-α” value [7] was “concentration-dependently decreased”.
